In the supplement of paper PMC11061612:

Assays:
[1] = system: COLO-668 (Small Cell Lung Carcinoma); assay: combination Emax (second highest fraction inhibited in the dose matrix, 72 h); higher = more inhibition; extreme values may be limits of the assay
How it was run: (§1)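 After 24 hours at 37°C and 5% CO2 in 1536-well plates, cells in DMEM/F12 or RPMI plus 10% FBS received two-drug dose matrices for 72 hours. Viability came from CellTiter-Glo 2.0 luminescence and was scaled as inhibition, anchored at 0 by vehicle wells and at 1 by blank wells. Combination Emax is taken as the second-highest inhibition in the matrix, and Bliss excess as the observed combination effect less EA + EB − EA·EB, with EA and EB the single-agent effects.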

[2] = system: A4-Fuk (B-Lymphoblastic Leukemia); assay: as above
How it was run: as §1

[3] = system: KOPN-8 (B-Lymphoblastic Leukemia); assay: as above
How it was run: as §1

[4] = system: OE33 (Esophageal Adenocarcinoma); assay: as above
How it was run: as §1

[5] = system: ALL-SIL (T-Lymphoblastic Leukemia); assay: as above
How it was run: as §1

[6] = system: HCC1937 (Breast Carcinoma); assay: as above
How it was run: as §1

[7] = system: NCI-H1092 (Small Cell Lung Carcinoma); assay: as above
How it was run: as §1

[8] = system: NCI-H2122 (Lung Adenocarcinoma); assay: as above
How it was run: as §1

[9] = system: OACM5-1 (Esophageal Adenocarcinoma); assay: as above
How it was run: as §1

[10] = system: SW872 (Other Solid Carcinomas); assay: as above
How it was run: as §1

[11] = system: HCC1500 (Breast Carcinoma); assay: as above
How it was run: as §1

[12] = system: G-401 (Other Solid Carcinomas); assay: as above
How it was run: as §1

[13] = system: SNU-387 (Hepatocellular Carcinoma); assay: as above
How it was run: as §1

[14] = system: HAL-01 (B-Lymphoblastic Leukemia); assay: as above
How it was run: as §1

[15] = system: MDA-MB-453 (Breast Carcinoma); assay: as above
How it was run: as §1

EW-1 (Ewing's Sarcoma) = assay: as above
How it was run: as §1

[16] = system: NCI-H1355 (Lung Adenocarcinoma); assay: as above
How it was run: as §1

[17] = system: Ca-Ski (Cervical Carcinoma); assay: as above
How it was run: as §1

[18] = system: NCI-H650 (Lung Adenocarcinoma); assay: Bliss excess, mean over the matrix (fraction); higher = more synergy
How it was run: as §1

[19] = system: SW872 (Other Solid Carcinomas); assay: as above
How it was run: as §1
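Throughout, for Bliss excess, mean over the matrix: after 72 h of two-drug dosing.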

Row | Compound | combination Emax [1] | combination Emax [2] | combination Emax [3] | combination Emax [4] | combination Emax [5] | combination Emax [6] | combination Emax [7] | combination Emax [8] | combination Emax [9] | combination Emax [10] | combination Emax [11] | combination Emax [12] | combination Emax [13] | combination Emax [14] | combination Emax [15] | combination Emax (EW-1 (Ewing's Sarcoma)) | combination Emax [16] | combination Emax [17] | Bliss excess [18] | Bliss excess [19]
1 | CN(C)CCCOc1ccc(-c2ccc3ncc4c(c3c2)n(C2CCOCC2)c(=O)n4C)cn1 [AZD0156] + C=CCn1c(=O)c2cnc(Nc3ccc(N4CCN(C)CC4)cc3)nc2n1-c1cccc(C(C)(C)O)n1 [AZD1775] (first compound max 1 µM, partner max 1 µM) | 0.405 | 0.816 | 0.85 | 0.472 | 0.742 | 0.475 | 0.301 | 0.793 | 0.414 | 0.267 | 0.283 | 0.646 | 0.464 | 0.917 | 0.192 | 0.886 | 0.532 | 0.7 | -0.0593 | -0.0183
2 | CN(C)CCCOc1ccc(-c2ccc3ncc4c(c3c2)n(C2CCOCC2)c(=O)n4C)cn1 [AZD0156] + CCN(CCO)CCCOc1ccc2c(Nc3cc(CC(=O)Nc4cccc(F)c4)[nH]n3)ncnc2c1 [AZD2811] (first compound max 1 µM, 7x7, partner max 1 µM) | 0.0922 | 0.551 | 0.554 | 0.068 | 0.976 | 0.159 | 0.181 | 0.358 | 0.232 | 0.0742 | 0.298 | 0.309 | 0.207 | 0.435 | 0.144 | 0.301 | 0.216 | 0.274 | -0.0159 | -0.0311
3 | CN(C)CCCOc1ccc(-c2ccc3ncc4c(c3c2)n(C2CCOCC2)c(=O)n4C)cn1 [AZD0156] + C[C@@H]1COCCN1C2=NC(=NC(=C2)C3(CC3)[S@](=N)(=O)C)C4=C5C=CNC5=NC=C4 [AZD6738] (first compound max 1 µM, 7x7, partner max 10 µM) | 0.612 | 0.734 | 0.927 | 0.788 | 0.887 | 0.543 | 0.174 | 0.945 | 0.57 | 0.552 | 0.298 | 0.493 | 0.553 | 0.988 | 0.831 | 0.93 | 0.69 | 0.668 | -0.011 | 0.0187
4 | CN(C)CCCOc1ccc(-c2ccc3ncc4c(c3c2)n(C2CCOCC2)c(=O)n4C)cn1 [AZD0156] + O=C(c1cc(Cc2n[nH]c(=O)c3ccccc23)ccc1F)N1CCN(C(=O)C2CC2)CC1 [Olaparib] (first compound max 3 µM, partner max 3 µM) | 0.179 | 0.553 | 0.78 | 0.207 | 0.175 | 0.228 | 0.304 | 0.355 | 0.327 | 0.272 | 0.403 | 0.3 | 0.405 | 0.563 | 0.286 | 0.684 | 0.305 | 0.304 | -0.014 | -0.0318
5 | C=CCn1c(=O)c2cnc(Nc3ccc(N4CCN(C)CC4)cc3)nc2n1-c1cccc(C(C)(C)O)n1 [AZD1775] + C1CN(CCC1(C(=O)N[C@@H](CCO)C2=CC=C(C=C2)Cl)N)C3=NC=NC4=C3C=CN4 [Capivasertib] (first compound max 3 µM, partner max 3 µM) | 0.545 | 0.859 | 0.968 | 0.639 | 0.936 | 0.873 | 0.533 | 0.931 | 0.74 |  | 0.413 | 0.646 | 0.687 | 0.977 | 0.859 | 0.963 | 0.646 | 0.825 | 0.0136 | -0.106
6 | C=CCn1c(=O)c2cnc(Nc3ccc(N4CCN(C)CC4)cc3)nc2n1-c1cccc(C(C)(C)O)n1 [AZD1775] + C[C@@H]1COCCN1C2=NC(=NC(=C2)C3(CC3)[S@](=N)(=O)C)C4=C5C=CNC5=NC=C4 [AZD6738] (first compound max 1 µM, partner max 10 µM) | 0.893 | 0.875 | 0.965 | 0.819 | 0.992 | 0.68 | 0.397 | 0.961 | 0.778 | 0.83 | 0.382 | 0.793 | 0.7 | 1 | 0.891 | 0.935 | 0.777 | 0.869 | 0.0062 | 0.053
7 | C=CCn1c(=O)c2cnc(Nc3ccc(N4CCN(C)CC4)cc3)nc2n1-c1cccc(C(C)(C)O)n1 [AZD1775] + O=C(c1cc(Cc2n[nH]c(=O)c3ccccc23)ccc1F)N1CCN(C(=O)C2CC2)CC1 [Olaparib] (first compound max 1 µM, partner max 10 µM) | 0.566 | 0.875 | 0.904 | 0.507 | 0.899 | 0.497 | 0.382 | 0.834 | 0.353 | 0.336 | 0.227 | 0.769 | 0.567 | 0.935 | 0.411 | 0.907 | 0.614 | 0.797 | -0.0532 | 0.0141
8 | CCN(CCO)CCCOc1ccc2c(Nc3cc(CC(=O)Nc4cccc(F)c4)[nH]n3)ncnc2c1 [AZD2811] + C=CCn1c(=O)c2cnc(Nc3ccc(N4CCN(C)CC4)cc3)nc2n1-c1cccc(C(C)(C)O)n1 [AZD1775] (first compound max 1 µM, partner max 1 µM) | 0.42 | 0.852 | 0.882 | 0.467 | 0.966 | 0.471 | 0.259 | 0.897 | 0.339 | 0.289 | 0.227 | 0.566 | 0.575 | 0.891 | 0.301 | 0.827 | 0.568 | 0.697 | 0.0178 | 0.0203
9 | CN(CCO)CC[C@H](CSc1ccccc1)Nc1ccc(S(=O)(=O)NC(=O)c2ccc(N3CCC([C@@H](O)c4ccccc4-c4ccc(Cl)cc4)CC3)cc2)cc1S(=O)(=O)C(F)(F)F [AZD4320] + C=CCn1c(=O)c2cnc(Nc3ccc(N4CCN(C)CC4)cc3)nc2n1-c1cccc(C(C)(C)O)n1 [AZD1775] (first compound max 1 µM, partner max 1 µM) |  | 0.898 | 1 | 0.492 | 1 | 0.791 | 0.809 | 0.953 | 0.635 | 0.3 | 0.995 | 0.901 | 0.681 | 1 | 0.285 | 1 | 0.594 | 0.96 | 0.0369 | 0.0035
10 | CN(CCO)CC[C@H](CSc1ccccc1)Nc1ccc(S(=O)(=O)NC(=O)c2ccc(N3CCC([C@@H](O)c4ccccc4-c4ccc(Cl)cc4)CC3)cc2)cc1S(=O)(=O)C(F)(F)F [AZD4320] + CN(C)CCCOc1ccc(-c2ccc3ncc4c(c3c2)n(C2CCOCC2)c(=O)n4C)cn1 [AZD0156] (first compound max 1 µM, 7x7, partner max 1 µM) |  | 0.476 | 0.898 | 0.0749 | 1 | 0.439 | 0.862 | 0.24 | 0.433 | 0.148 | 0.998 | 0.266 | 0.183 | 0.853 | 0.175 | 0.705 | 0.162 | 0.268 | -0.0182 | -0.0107
11 | Cc1c2c(nn1C)CSCc1cc(n(C)n1)CSc1cc(c3ccccc3c1)OCCCc1c(C(=O)O)n(C)c3c-2c(Cl)ccc13 [AZD5991] + C[C@@H](Nc1cc(F)cc(F)c1)c1cc(C(=O)N(C)C)cc2c(=O)cc(N3CCOCC3)oc12 [AZD8186] (first compound max 1 µM, 7x7, partner max 3 µM) | 0.205 | 1 | 0.915 |  | 0.968 | 0.511 | 0.569 | 0.697 | 0.94 | 0.321 | 0.426 | 0.612 | 0.41 | 0.734 | 0.355 | 0.367 | 0.227 | 0.556 | -0.0023 | -0.0214
12 | CS(=O)(=O)CCNCc1ccc(-c2ccc3ncnc(Nc4ccc(OCc5cccc(F)c5)c(Cl)c4)c3c2)o1 [Lapatinib] + NC1(c2ccc(-c3nc4ccn5c(=O)[nH]nc5c4cc3-c3ccccc3)cc2)CCC1 [MK-2206] (first compound max 10 µM, 7x7, partner max 10 µM) | 0.508 | 0.971 | 0.936 | 0.849 |  | 0.841 | 0.791 |  |  | 0.247 | 0.901 |  | 0.873 | 0.951 | 0.801 |  | 0.286 | 0.758 | -0.0464 | -0.0066
13 | CCc1c2c(nc3ccc(O)cc13)-c1cc3c(c(=O)n1C2)COC(=O)[C@]3(O)CC [SN-38] + O=C(c1cc(Cc2n[nH]c(=O)c3ccccc23)ccc1F)N1CCN(C(=O)C2CC2)CC1 [Olaparib] (first compound max 0.3 µM, 7x7, partner max 10 µM) | 1 | 0.96 | 0.965 | 0.587 | 1 |  | 0.54 |  | 0.796 | 1 | 0.873 |  | 0.146 | 1 | 0.746 | 0.99 | 0.366 | 0.997 |  | 0.0634
